Reference: US8536304B2, “Tumour-associated peptides that bind to MHC molecules” (Immatics Biotechnologies GmbH, priority 2002, dated 2013)

Assays:
Assay type in all cases: cell-based, human
[1] = system: MZ 1774 (renal cell carcinoma); experiment: 51Cr-release CTL-assay against tumor cell line MZ 1774; conditions: cell line MZ 1774, FIG. 3f
Experimental: (§1) In the CTL-assays, tumor cells, peptide-pulsed cells of different cell lines and autologous DC were used as target cells. Peptide-pulsed cells were pulsed with 50 μg/ml peptide (SEQ ID No. 1 or SEQ ID No. 2) for 2 hours. All target cells were labeled with [^51Cr] sodium chromate in RP10 (RPMI 1640, supplemented with 10% heat inactivated calf serum and antibiotics) for 1 hour at 37° C. Subsequently, 10^4 cells/well were transferred to a 96-well round bottomed plate. Varying numbers of CTL were added to give a final volume of 200 μl and incubated for 4 hours at 37° C. At the end of the assays, supernatants (50 μl/well) were harvested and counted in a beta-plate counter. […] The spontaneous and maximal release were determined in the presence of either medium or 2% Triton X-100, respectively.
(§2) Next, it was tested, in a standard tumor ^51Cr-release-assays again, whether CTL specific for the c-Met-peptide with SEQ ID No. 1 or for adipophilin-peptide with SEQ ID No. 2 recognized and lysed tumor cells, which endogenously express the c-Met-protooncogene or adipophilin. […]

non-malignant B-cells = experiment: 51Cr-release assay, CTL of CLL patient against non-malignant B-cells; conditions: FIG. 6
Experimental: as §1
(§3) In a further experiment, CTL were generated from PBMNC of HLA-A*0201-positive patient with chronic lymphatic leukemia (CLL), which were specific for adipophilin-peptide with SEQ ID NO:2. The patient was in remission after treatment with fludarabine. Further, autologous CLL-cells and DC of this patient were used as ^51Cr-labeled targets in an assay, in which ^51Cr-release is mediated by the peptide-induced CTL.

autologous CLL-cells = experiment: 51Cr-release assay, CTL of CLL patient against autologous CLL-cells; conditions: CTL from PBMNC of HLA-A*0201-positive CLL patient; FIG. 6
Experimental: as §1, §3

[2] = system: autologous DC of CLL patient; experiment: 51Cr-release assay, CTL of CLL patient against autologous peptide-pulsed DC; conditions: adipophilin-peptide-induced CTL of CLL patient; FIG. 6
Experimental: as §1, §3

51Cr-labeled tumor cells = experiment: Target inhibition assay with peptide-pulsed T2 inhibitor cells, CTL of CLL patient; conditions: adipophilin-peptide-induced CTL of CLL patient; FIG. 6
Source text: The specificity of the CTL-response was further confirmed in a target inhibition assay, using the cell line T2 (see above) as inhibitor cells, which were pulsed with the adipophilin peptide with SEQ ID NO:2 or with the irrelevant peptide Survivin with SEQ ID NO:80, respectively. The CTL induced with adipophilin-peptide with SEQ ID NO:2 lysed the excess inhibitor cell lines which were pulsed with the relevant peptide with SEQ ID NO:2 no that ^51Cr-labeled tumor cells were not lysed in this case (see in FIG. 6 the curve with empty boxes).

cell line K 562 = experiment: 51Cr-release assay, CTL of CLL patient against K 562; conditions: FIG. 6
Experimental: as §1, §3

51Cr-labeled U 266 = experiment: Lysis-inhibition assay with cold peptide-pulsed T2 inhibitor cells, target U 266; conditions: c-Met-peptide-induced CTL, inhibitor:target 20:1, FIGS. 4a and 4b
Experimental: To further verify the antigen-specificity and the MHC-restriction of the in-vitro-induced CTL, inhibition assays with non-^51Cr-labeled (“cold”) inhibitor cell lines were performed.
In doing so, the ability of peptide-pulsed cell lines was analyzed to inhibit the lysis of tumor cells (competition assay). For this purpose, an excess of inhibitor (that is an excess of unlabeled pulsed cells) was used. The ratio of inhibitor (peptide-pulsed cells) to target (tumor cells) was 20:1. When inhibitor cell lines were lysed, no ^51Cr was released, since the inhibitor cell lines were unlabeled.
Cell line T2 (HLA-A*02; TAP-deficient; see under 2.5.a) was used as inhibitor. Previous to the assay, this cell line T2 was pulsed with the relevant peptides (SEQ ID NOS:1 or 2) or an irrelevant control peptide (Survivin (=Sv), SEQ ID NO:80), respectively.
In FIGS. 4a and 4b, lysis of the ^51Cr-labeled cell lines U 266 and A 498 was tested without inhibitor cell line (see the curve with black filled boxes); lysis with inhibitor cell line T2, pulsed with an irrelevant peptide (Survivin; SEQ ID NO:80; negative control, curves with the filled triangles); and lyses with the inhibitor cell line T2 pulsed with the c-Met-peptide with SEQ ID NO:1 (curves with the empty rhombus).

HCT 116 (colon cancer) = experiment: 51Cr-release CTL-assay against tumor cell line HCT 116; conditions: cell line HCT 116, FIG. 3a
Experimental: as §1, §2

| Sequence | lysis of tumor cells by CTL induced with the peptide [1] | lysis of non-malignant B-cells by peptide-induced CTL (non-malignant B-cells) | lysis of autologous CLL-cells by peptide-induced CTL (autologous CLL-cells) | lysis of autologous DC pulsed with the peptide [2] | lysis of 51Cr-labeled tumor cells in presence of excess T2 inhibitor cells pulsed with the peptide (51Cr-labeled tumor cells) | lysis of cell line K 562 by peptide-induced CTL (cell line K 562) | lysis of 51Cr-labeled tumor cells in presence of unlabeled T2 inhibitor cells pulsed with the peptide (51Cr-labeled U 266) | lysis of tumor cells by CTL induced with the peptide (HCT 116 (colon cancer)) |
| --- | --- | --- | --- | --- | --- | --- | --- | --- |
| SVASTITGV (listed as Homo sapiens) [SEQ ID No. 2, HLA-A*02 ligand, adipose differentiation-related protein 129-137] | efficiently lyse | not lysed | efficiently lysed | efficiently lysed | not lysed | not lysed | – | – |
| YVDPVITSI (listed as Homo sapiens) [SEQ ID No. 1, HLA-A*02 ligand, met proto-oncogen 654-662] | – | – | – | – | – | – | not lysed | efficiently lyse |
